What all share (experiment): microbe, parasite or virus in culture
Common to all, as to type: cell-based, Hepatitis C virus (HCV)

The test system of one experiment is HCV replicon 1A. To be noted: replicon 1A, Replicon Assay A. In short, it runs like this:
(§1)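 HCV RNA levels were calculated from Ct values (minus intercept, divided by slope) of a Neo primer/probe standard curve, with cyclophilin quantified the same way. Cells were seeded at 2000/well and incubated with compound for 3 days in 5% serum and 0.5% DMSO.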

A further experiment has as its system HCV replicon 1AY93H. To be noted: Replicon Assay A. The procedure, abridged:
as §1

Another experiment relates to HCV replicon 2B. To be noted: Replicon Assay A. The procedure, abridged:
as §1
For orientation: A replicon is a self-replicating genome or part of one, used to study replication in cells.

Where [1] appears, read: read-out: 1A Y93H IC50, replicon 1AY93H.
Where [2] appears, read: Hepatitis C virus, read-out: 1A Y93H IC50 (nM), replicon 1AY93H.
Where [3] appears, read: Hepatitis C virus, read-out: 2B IC50 (nM), replicon 2B.

A word on the IC50: it is the point on the concentration scale where inhibition reaches its midpoint.

Read-outs that look alike come from different tables or passages of the source.

Consider `COC(=O)NC(C(=O)N1CCC[C@H]1c1ncc(-c2cc(F)c3c(c2)OC(c2ccc(C4CC4)s2)n2c-3cc3cc(-c4cnc([C@@H]5CCCN5C(=O)C(NC(=O)OC)C(C)(C)F)[nH]4)ccc32)[nH]1)C(C)(C)F` (single isomer, unassigned) [Compound 110], for which the IC50 was 0.002 nM with HCV replicon 1A (Hepatitis C virus); 1.97 nM in the experiment with HCV replicon 1AY93H (setting [1]); 2.43 nM with HCV replicon 2B (read-out: 2B IC50, replicon 2B).

As to `COC(=O)NC(C(=O)N1CCC[C@H]1c1ncc(-c2ccc3c(c2)cc2n3C(c3ccc(C4CC4)s3)Oc3cc(-c4cnc([C@@H]5C[C@@H](F)CN5C(=O)[C@@H](NC(=O)OC)C(C)C)[nH]4)cc(F)c3-2)[nH]1)C(C)(C)F` (single isomer, unassigned) [Compound 112], the IC50 was 0.0022 nM in the experiment with HCV replicon 1A; 0.23 nM with HCV replicon 1AY93H (setting [1]); 7.07 nM in the experiment on HCV replicon 2B (read-out: 2B IC50, replicon 2B).

With `COC(=O)NC(C(=O)N1CCC[C@H]1c1ncc(-c2ccc3c(c2)cc2n3C(c3ccc(C4CC4)s3)Oc3cc(-c4cnc([C@@H]5C[C@@H](F)CN5C(=O)[C@@H](NC(=O)OC)C(C)C)[nH]4)cc(F)c3-2)[nH]1)C(C)(C)F` (single isomer, unassigned) [Compound 115], the IC50 in the experiment on HCV replicon 1A amounted to 0.0011 nM; in the experiment with HCV replicon 1AY93H (setting [1]), 0.05 nM; with HCV replicon 2B (read-out: 2B IC50, replicon 2B), 9.84 nM.

Regarding `COC(=O)N[C@H](C(=O)N1CCC[C@H]1c1ncc(-c2cc(F)c3c(c2)OC(c2ccc(C(CF)CF)s2)n2c-3cc3cc(-c4cnc([C@@H]5CCCN5C(=O)[C@@H](NC(=O)OC)C(C)C)[nH]4)ccc32)[nH]1)C(C)C` (single isomer, unassigned) [Compound 120], the IC50 was 0.0015 nM in the experiment with HCV replicon 1A (Hepatitis C virus); 0.1 nM in the experiment on HCV replicon 1AY93H (setting [2]); 1.44 nM with HCV replicon 2B (read-out: 2B IC50, replicon 2B).

As to `COC(=O)N[C@H](C(=O)N1CCC[C@H]1c1ncc(-c2cc(F)c3c(c2)OC(c2ccc(CC(F)(F)F)s2)n2c-3cc3cc(-c4cnc([C@@H]5CCCN5C(=O)[C@@H](NC(=O)OC)C(C)C)[nH]4)ccc32)[nH]1)C(C)C` (single isomer, unassigned) [Compound 124], the IC50 is 0.0018 nM in the experiment on HCV replicon 1A (Hepatitis C virus), 1.38 nM with HCV replicon 1AY93H (setting [2]) and 3.4 nM in the experiment on HCV replicon 2B (setting [3]).

Take `COC(=O)N[C@H](C(=O)N1CCC[C@H]1c1ncc(-c2cc(F)c3c(c2)OC(c2ccc(C4CC4)s2)n2c-3cc3cc(-c4cnc([C@@H]5CCCN5C(=O)[C@@H](NC(=O)OC)C5CCOCC5)[nH]4)ccc32)[nH]1)C(C)C` (single isomer, unassigned) [Compound 126]: the IC50 worked out at 0.0019 nM with HCV replicon 1A (Hepatitis C virus), 0.27 nM in the experiment with HCV replicon 1AY93H (setting [2]) and 0.21 nM in the experiment with HCV replicon 2B (setting [3]).

For the compound `COC(=O)NC(C(=O)N1CCC[C@H]1c1ncc(-c2ccc3c(c2)cc2n3C(c3cc(C)c(C)s3)Oc3cc(-c4cnc([C@@H]5CCCN5C(=O)[C@@H](NC(=O)OC)C5CCOCC5)[nH]4)cc(F)c3-2)[nH]1)C(C)(C)F` (single isomer, unassigned) [Compound 129], the IC50 with HCV replicon 1A is 0.001 nM; with HCV replicon 1AY93H (setting [1]), 0.8 nM; in the experiment on HCV replicon 2B (read-out: 2B IC50, replicon 2B), 1.17 nM.

On to `COC(=O)NC(C(=O)N1CCC[C@H]1c1ncc(-c2ccc3c(c2)cc2n3C(c3cc(C)c(C)s3)Oc3cc(-c4cnc([C@@H]5CCCN5C(=O)[C@@H](NC(=O)OC)C5CCOCC5)[nH]4)cc(F)c3-2)[nH]1)C(C)(C)F` (single isomer, unassigned) [Compound 131], for which the IC50 was found to be 0.0078 nM in the experiment with HCV replicon 1A; 3.83 nM in the experiment with HCV replicon 1AY93H (setting [1]); 9.78 nM in the experiment with HCV replicon 2B (read-out: 2B IC50, replicon 2B).

Regarding `COC(=O)N[C@H](C(=O)N1CCC[C@H]1c1ncc(-c2cc(F)c3c(c2)OC(c2ccc(C(C)C(F)(F)F)s2)n2c-3cc3cc(-c4cnc([C@@H]5CCCN5C(=O)[C@@H](NC(=O)OC)C(C)C)[nH]4)ccc32)[nH]1)C(C)C` (single isomer, unassigned) [Compound 132], the IC50 in the experiment with HCV replicon 1A (Hepatitis C virus) was 0.0032 nM; with HCV replicon 1AY93H (setting [2]) it was 4.93 nM; in the experiment on HCV replicon 2B (read-out: 2B IC50, replicon 2B), 6 nM.

Take `COC(=O)NC(C(=O)N1CCC[C@H]1c1ncc(-c2ccc3c(c2)cc2n3C(c3ccc(C4CC4)s3)Oc3cc(-c4cnc([C@@H]5CCCN5C(=O)[C@@H](NC(=O)OC)C(C)C)[nH]4)cc(F)c3-2)[nH]1)C1CCO[C@H](C)C1` (single isomer, unassigned) [Compound 137]: the half-maximal inhibitory concentration (IC50) is 0.0018 nM in the experiment with HCV replicon 1A; 0.28 nM with HCV replicon 1AY93H (setting [1]); 0.37 nM in the experiment with HCV replicon 2B (read-out: 2B IC50, replicon 2B).

With `COC(=O)NC(C(=O)N1CCC[C@H]1c1ncc(-c2ccc3c(c2)cc2n3C(c3ccc(C4CC4)s3)Oc3cc(-c4cnc([C@@H]5CCCN5C(=O)[C@@H](NC(=O)OC)C(C)C)[nH]4)cc(F)c3-2)[nH]1)C1CCO[C@H](C)C1` (single isomer, unassigned) [Compound 140], the IC50 with HCV replicon 1A came to 0.0407 nM; in the experiment with HCV replicon 1AY93H (setting [1]) it was 5.51 nM; with HCV replicon 2B (read-out: 2B IC50, replicon 2B), 8.69 nM.

Turning to `COC(=O)NC(C(=O)N1CCC[C@H]1c1ncc(-c2ccc3c(c2)cc2n3C(c3ccc(C4CC4)s3)Oc3cc(-c4cnc([C@@H]5CCCN5C(=O)[C@@H](NC(=O)OC)C(C)C)[nH]4)cc(F)c3-2)[nH]1)C1CCO[C@H](C)C1` (single isomer, unassigned) [Compound 141], the IC50 in the experiment with HCV replicon 1A is 0.0584 nM; in the experiment with HCV replicon 1AY93H (setting [1]) it was 12.8 nM; in the experiment with HCV replicon 2B (read-out: 2B IC50, replicon 2B), 21.4 nM.

Take `CCc1ccc(C2Oc3cc(-c4cnc([C@@H]5CCCN5C(=O)[C@@H](NC(=O)OC)C(C)C)[nH]4)cc(F)c3-c3cc4cc(-c5cnc([C@@H]6CCCN6C(=O)C(NC(=O)OC)C6C[C@@H](C)O[C@@H](C)C6)[nH]5)ccc4n32)s1` (single isomer, unassigned) [Compound 142]: the IC50 stood at 0.002 nM in the experiment on HCV replicon 1A; 0.25 nM in the experiment on HCV replicon 1AY93H (setting [1]); 0.48 nM in the experiment on HCV replicon 2B (read-out: 2B IC50, replicon 2B).

For the compound `CCc1ccc(C2Oc3cc(-c4cnc([C@@H]5CCCN5C(=O)[C@@H](NC(=O)OC)C(C)C)[nH]4)cc(F)c3-c3cc4cc(-c5cnc([C@@H]6CCCN6C(=O)C(NC(=O)OC)C6C[C@@H](C)O[C@@H](C)C6)[nH]5)ccc4n32)s1` (single isomer, unassigned) [Compound 145], the IC50 in the experiment with HCV replicon 1A was found to be 0.0022 nM; in the experiment with HCV replicon 1AY93H (setting [1]), 5.22 nM; in the experiment on HCV replicon 2B (read-out: 2B IC50, replicon 2B), 1.62 nM.

For the compound `CCc1ccc(C2Oc3cc(-c4cnc([C@@H]5CCCN5C(=O)[C@@H](NC(=O)OC)C(C)C)[nH]4)cc(F)c3-c3cc4cc(-c5cnc([C@@H]6CCCN6C(=O)C(NC(=O)OC)C6CCOC(C)(C)C6)[nH]5)ccc4n32)s1` (single isomer, unassigned) [Compound 146], the IC50 was 0.0012 nM in the experiment on HCV replicon 1A; 0.57 nM with HCV replicon 1AY93H (setting [1]); 0.38 nM in the experiment with HCV replicon 2B (read-out: 2B IC50, replicon 2B).

Regarding `CCc1ccc(C2Oc3cc(-c4cnc([C@@H]5CCCN5C(=O)[C@@H](NC(=O)OC)C(C)C)[nH]4)cc(F)c3-c3cc4cc(-c5cnc([C@@H]6CCCN6C(=O)C(NC(=O)OC)C6CCOC(C)(C)C6)[nH]5)ccc4n32)s1` (single isomer, unassigned) [Compound 147], the IC50 in the experiment with HCV replicon 1A was determined as 0.0025 nM; with HCV replicon 1AY93H (setting [1]), 0.43 nM; in the experiment on HCV replicon 2B (read-out: 2B IC50, replicon 2B) it was 0.62 nM.

With `CCc1ccc(C2Oc3cc(-c4cnc([C@@H]5CCCN5C(=O)[C@@H](NC(=O)OC)C(C)C)[nH]4)cc(F)c3-c3cc4cc(-c5cnc([C@@H]6CCCN6C(=O)C(NC(=O)OC)C6CCOC(C)(C)C6)[nH]5)ccc4n32)s1` (single isomer, unassigned) [Compound 148], the IC50 with HCV replicon 1A is 0.0919 nM; with HCV replicon 1AY93H (setting [1]), 10.2 nM; with HCV replicon 2B (read-out: 2B IC50, replicon 2B) it was 13.2 nM.

On to `CCc1ccc(C2Oc3cc(-c4cnc([C@@H]5CCCN5C(=O)[C@@H](NC(=O)OC)C(C)C)[nH]4)cc(F)c3-c3cc4cc(-c5cnc([C@@H]6CCCN6C(=O)C(NC(=O)OC)C6CCOC(C)(C)C6)[nH]5)ccc4n32)s1` (single isomer, unassigned) [Compound 149], for which the IC50 in the experiment with HCV replicon 1A came to 0.129 nM; in the experiment on HCV replicon 1AY93H (setting [1]), 25.9 nM; in the experiment with HCV replicon 2B (read-out: 2B IC50, replicon 2B), 24.8 nM.

Regarding `CCc1ccc(C2Oc3cc(-c4cnc([C@@H]5CCCN5C(=O)[C@@H](NC(=O)OC)C(C)C)[nH]4)cc(F)c3-c3cc4cc(-c5cnc([C@@H]6CCCN6C(=O)C(NC(=O)OC)C6CCOC(C)(C)C6)[nH]5)ccc4n32)s1` (single isomer, unassigned) [Compound 152], the IC50 in the experiment with HCV replicon 1A came to 0.0016 nM; in the experiment on HCV replicon 1AY93H (setting [1]) it was 0.48 nM; in the experiment with HCV replicon 2B (read-out: 2B IC50, replicon 2B), 0.53 nM.

`CCc1ccc(C2Oc3cc(-c4cnc([C@@H]5CCCN5C(=O)[C@@H](NC(=O)OC)C(C)C)[nH]4)cc(F)c3-c3cc4cc(-c5cnc([C@@H]6CCCN6C(=O)C(NC(=O)OC)C6CCOC(C)(C)C6)[nH]5)ccc4n32)s1` (single isomer, unassigned) [Compound 153]: the IC50 with HCV replicon 1A was 0.0021 nM; in the experiment with HCV replicon 1AY93H (setting [1]), 0.422 nM; in the experiment on HCV replicon 2B (read-out: 2B IC50, replicon 2B), 0.51 nM.

For the compound `CCc1ccc(C2Oc3cc(-c4cnc([C@@H]5CCCN5C(=O)C(NC(=O)OC)C5C[C@@H](C)O[C@@H](C)C5)[nH]4)cc(F)c3-c3cc4cc(-c5cnc([C@@H]6CCCN6C(=O)[C@@H](NC(=O)OC)C(C)C)[nH]5)ccc4n32)s1` (single isomer, unassigned) [Compound 154], the IC50 in the experiment with HCV replicon 1A was 0.0017 nM; in the experiment with HCV replicon 1AY93H (setting [1]) it was 0.36 nM; in the experiment with HCV replicon 2B (read-out: 2B IC50, replicon 2B), 0.55 nM.

As for `CCc1ccc(C2Oc3cc(-c4cnc([C@@H]5CCCN5C(=O)C(NC(=O)OC)C5C[C@@H](C)O[C@@H](C)C5)[nH]4)cc(F)c3-c3cc4cc(-c5cnc([C@@H]6CCCN6C(=O)[C@@H](NC(=O)OC)C(C)C)[nH]5)ccc4n32)s1` (single isomer, unassigned) [Compound 157], the IC50 in the experiment with HCV replicon 1A came out at 0.0021 nM; with HCV replicon 1AY93H (setting [1]) it was 2.32 nM; in the experiment on HCV replicon 2B (read-out: 2B IC50, replicon 2B), 2.8 nM.

`CCc1ccc(C2Oc3cc(-c4cnc([C@@H]5CCCN5C(=O)C(NC(=O)OC)C5CCOC(C)(C)C5)[nH]4)cc(F)c3-c3cc4cc(-c5cnc([C@@H]6CCCN6C(=O)[C@@H](NC(=O)OC)C(C)C)[nH]5)ccc4n32)s1` (single isomer, unassigned) [Compound 158]: the IC50 came out at 0.0033 nM in the experiment with HCV replicon 1A; 1.07 nM with HCV replicon 1AY93H (setting [1]); 0.43 nM with HCV replicon 2B (read-out: 2B IC50, replicon 2B).

These data come from US20160257697A1, “THIOPHENE-SUBSTITUTED TETRACYCLIC COMPOUNDS AND METHODS OFUSE THEREOF FOR THE TREATMENT OF VIRAL DISEASES” (priority 2013, published 2016).
